Assay results from patent US20260337189A1, “Cryptolepine Salt Derivative, Preparation Method, and Use Thereof” (ZHEJIANG XINNONG CHEMICAL CO., LTD., priority 2023, published 2026).

Experiments:
rice sheath blight = assay: Test of resistance to rice sheath blight (bactericidal activity test); format: in vivo; conditions: for Resistance to rice sheath blight: 400 mg/L, rice seedlings, sprayed 24 h before inoculation, 6 days after inoculation, visual inspection; for bactericidal activity against rice sheath blight: live pot test, Table 5, 400 mg/L
Procedure: Bactericidal activity test, the determination procedure is as follows:
Test of resistance to rice sheath blight: Select uniformly growing rice seedlings and spray them on the leaves at the set concentration, set a water spraying group as blank control, every treatment was repeated twice. After 24 h, the rice seedlings were inoculated with rice sheath blight strains and placed at room temperature (25±4° C.) for normal management after inoculation. The prevention and control effect was investigated by visual inspection 6 days after inoculation.

[1] = tested on: tobacco Mosaic virus (TMV); assay: Anti-tobacco Mosaic virus (TMV) activity, overall comparison of Test Example 1; format: in vivo; conditions: 500 μg/mL; Table 4
Procedure: Determination of anti-tobacco Mosaic virus (TMV) activity by the following procedure:
After weighing, cryptolepine salt derivative, ningnanmycin and the original drug of ribavirin were dissolved in DMF to obtain 1×10^5 μg/mL mother solution, and then diluted to the required concentration with 1%. Tween 80 aqueous solution.
Select the 3-5 leaf stage of tobacco Xanthi nc with uniform growth, spray the whole plant, repeat each treatment 3 times, and set 1%. Tween80 aqueous solution as control. 24 h later, the leaf surface was coated with emery (500 mesh), the disease venom was dipped with a brush, and the whole leaf surface was gently rubbed twice along the direction of the branch pulse by using the brush, the leaf was supported by palm of hand, the virus concentration was 10 μg/mL, and the leaf was washed by water after inoculation. After 3 days, the number of disease spots was recorded and the prevention and control effect was calculated.
Select the 3-5 leaf stage of tobacco Xanthi nc with uniform growth, use a brush to vaccinate the virus in the whole leaf, the virus concentration is 10 μg/mL, and the leaf was washed with running water after inoculation. After the leaves were dried, the whole plant was sprayed with test sample, repeated 3 times every treatment, and 1%. Tween 80 aqueous solution was set as control. After 3 days, the number of disease spots was recorded and the prevention and control effect was calculated.
Select the 3-5 leaf stage of tobacco Xanthi nc with uniform growth, mix the test sample agent with the same volume of virus juice to passivate for 30 min, friction inoculation, virus concentration 20 μg/mL, the leaf was washed with running water after inoculation, repeat 3 times, set 1%. Tween 80 aqueous solution as control. 3 days later, the number of disease spots was calculated.
Relative inhibition rate (%)=[(number of dead spots of control group-number of dead spots of test sample group)/number of dead spots of control group]×100%.
Anti-tobacco Mosaic virus passivation activity test of all compounds was at a treatment dose of 500 μg/mL. The positive control was the commercial anti-plant virus agent viriazole.

| Compound | Resistance to rice sheath blight (rice sheath blight) [%] | bactericidal activity against rice sheath blight (rice sheath blight) | TMV activity compared with ribavirin [1] | anti-TMV activity compared with commercial Ningnanmycin [1] |
| --- | --- | --- | --- | --- |
| Cc1ccc(S(=O)(=O)n2c3ccccc3c3c2cc2ccccc2[n+]3C)cc1.[Cl-] [Example 1] | 95 ± 5 | more than 95% |  |  |
| Cc1ccc(S(=O)(=O)n2c3ccc(C)cc3c3c2cc2ccccc2[n+]3C)cc1.[Cl-] [Example 2] | 40 ± 0 |  |  |  |
| COc1ccc2c(c1)c1c(cc3ccccc3[n+]1C)n2S(=O)(=O)c1ccc(C)cc1.[Cl-] [Example 3] | 35 ± 5 |  |  |  |
| Cc1ccc(S(=O)(=O)n2c3ccc(Cl)cc3c3c2cc2ccccc2[n+]3C)cc1.[Cl-] [Example 5] | 55 ± 5 | more than 50% | better TMV activity than the ribavirin | comparable to that of commercial Ningnanmycin |
| Cc1ccc(S(=O)(=O)n2c3ccc(Br)cc3c3c2cc2ccccc2[n+]3C)cc1.[Cl-] [Example 6] | 40 ± 0 |  | better TMV activity than the ribavirin | comparable to that of commercial Ningnanmycin |
| Cc1ccc(S(=O)(=O)n2c3ccc(C#N)cc3c3c2cc2ccccc2[n+]3C)cc1.[Cl-] [Example 8] | 30 ± 0 |  |  |  |
| Cc1ccc(S(=O)(=O)n2c3ccccc3c3c2cc2cc(C)ccc2[n+]3C)cc1.[Cl-] [Example 9] | 70 ± 0 | more than 50% |  |  |
| COc1ccc2c(c1)cc1c(c3ccccc3n1S(=O)(=O)c1ccc(C)cc1)[n+]2C.[Cl-] [Example 10] | 30 ± 0 |  |  |  |
| Cc1ccc(S(=O)(=O)n2c3ccccc3c3c2cc2cc(F)ccc2[n+]3C)cc1.[Cl-] [Example 11] | 40 ± 0 |  |  |  |
| Cc1ccc(S(=O)(=O)n2c3ccccc3c3c2cc2cc(Cl)ccc2[n+]3C)cc1.[Cl-] [Example 12] | 40 ± 0 |  |  |  |
| Cc1ccc(S(=O)(=O)n2c3ccccc3c3c2cc2cc(Br)ccc2[n+]3C)cc1.[Cl-] [Example 13] | 35 ± 5 |  | better TMV activity than the ribavirin | comparable to that of commercial Ningnanmycin |
| Cc1ccc(S(=O)(=O)n2c3ccccc3c3c2cc2cc(C(F)(F)F)ccc2[n+]3C)cc1.[Cl-] [Example 14] | 60 ± 0 | more than 50% |  |  |
| COC(=O)c1ccc2c(c1)cc1c(c3ccccc3n1S(=O)(=O)c1ccc(C)cc1)[n+]2C.[Cl-] [Example 15] | 40 ± 0 |  |  |  |
| Cc1ccc(S(=O)(=O)n2c3ccccc3c3c2cc2ccc(C)cc2[n+]3C)cc1 [Example 16] | 95 ± 5 | more than 95% |  |  |
| Cc1ccc(S(=O)(=O)n2c3ccccc3c3c2cc2ccc(Cl)cc2[n+]3C)cc1 [Example 17] | 40 ± 0 |  |  |  |
| Cc1ccc(S(=O)(=O)n2c3ccccc3c3c2cc2ccccc2[n+]3CC2CC2)cc1 [Example 18] | 45 ± 5 | more than 50% | better TMV activity than the ribavirin |  |
| Cc1ccc(S(=O)(=O)n2c3ccccc3c3c2cc2ccccc2[n+]3CC2CCCCC2)cc1 [Example 19] | 20 ± 0 |  | better TMV activity than the ribavirin |  |
| Cc1ccc(S(=O)(=O)n2c3ccccc3c3c2cc2ccccc2[n+]3CC(C)(C)C)cc1 [Example 20] | 55 ± 5 | more than 50% | better TMV activity than the ribavirin | comparable to that of commercial Ningnanmycin |
| Cc1ccc(S(=O)(=O)n2c3ccccc3c3c2cc2ccccc2[n+]3Cc2ccccc2)cc1 [Example 21] | 40 ± 0 |  | better TMV activity than the ribavirin |  |
| C[n+]1c2ccccc2cc2c1c1ccccc1n2S(=O)(=O)c1ccccc1 [Example 22] | 45 ± 5 | more than 50% |  |  |
| CCCNc1c2ccccc2[n+](C)c2c1[nH]c1ccccc12 [Example 23] | 30 ± 0 |  |  |  |

| Compound | Resistance to rice sheath blight (rice sheath blight) [%] | bactericidal activity against rice sheath blight (rice sheath blight) | TMV activity compared with ribavirin [1] | anti-TMV activity compared with commercial Ningnanmycin [1] |
| --- | --- | --- | --- | --- |
| CC(C)CCNc1c2ccccc2[n+](C)c2c1[nH]c1ccccc12 [Example 26] | 35 ± 5 |  | better TMV activity than the ribavirin |  |
| CCCCC(CC)CNc1c2ccccc2[n+](C)c2c1[nH]c1ccccc12 (stereo not drawn) [Example 27] | 30 ± 0 |  | better TMV activity than the ribavirin | comparable to that of commercial Ningnanmycin |
| C[n+]1c2ccccc2c(NCC2CC2)c2[nH]c3ccccc3c21 [Example 28] | 60 ± 0 | more than 50% |  |  |
| C[n+]1c2ccccc2c(NCC2CCCCC2)c2[nH]c3ccccc3c21 [Example 30] | 35 ± 5 |  |  |  |
| C[n+]1c2ccccc2c(NCCCC2CCCCC2)c2[nH]c3ccccc3c21.[I-] [Example 31] | 25 ± 5 |  |  |  |
| C[n+]1c2ccccc2c(NCCN)c2[nH]c3ccccc3c21.[I-] [Example 32] | 30 ± 0 |  |  |  |
| C[n+]1c2ccccc2c(NCCCCN)c2[nH]c3ccccc3c21.[I-] [Example 34] | 20 ± 0 |  | better TMV activity than the ribavirin | comparable to that of commercial Ningnanmycin |
| CC(N)CNc1c2ccccc2[n+](C)c2c1[nH]c1ccccc12.[I-] (stereo not drawn) [Example 35] | 25 ± 5 |  | better TMV activity than the ribavirin |  |
| C[n+]1c2ccccc2c(NCC(C)(C)N)c2[nH]c3ccccc3c21.[I-] [Example 36] | 35 ± 5 |  |  |  |
| CCNCCNc1c2ccccc2[n+](C)c2c1[nH]c1ccccc12.[I-] [Example 37] | 40 ± 0 |  |  |  |
| CNCCCNc1c2ccccc2[n+](C)c2c1[nH]c1ccccc12.[I-] [Example 38] | 30 ± 0 |  |  |  |
| CN(C)CC(C)(C)CNc1c2ccccc2[n+](C)c2c1[nH]c1ccccc12.[I-] [Example 39] | 25 ± 5 |  |  |  |
| C[n+]1c2ccccc2c(NC2CCNC2)c2[nH]c3ccccc3c21.[I-] (stereo not drawn) [Example 40] | 20 ± 0 |  | better TMV activity than the ribavirin |  |
| C[n+]1c2ccccc2c(NC2CCNCC2)c2[nH]c3ccccc3c21.[I-] [Example 41] | 40 ± 0 |  | better TMV activity than the ribavirin |  |
| C[n+]1c2ccccc2c(NCC2CCCNC2)c2[nH]c3ccccc3c21.[I-] (stereo not drawn) [Example 43] | 30 ± 0 |  |  |  |
| CN1CCC(Nc2c3ccccc3[n+](C)c3c2[nH]c2ccccc23)CC1.[I-] [Example 44] | 55 ± 5 | more than 50% |  |  |
| CN1CCC(CNc2c3ccccc3[n+](C)c3c2[nH]c2ccccc23)CC1.[I-] [Example 45] | 30 ± 0 |  |  |  |
| CN1CCCC(CNc2c3ccccc3[n+](C)c3c2[nH]c2ccccc23)C1 (stereo not drawn) [Example 46] | 30 ± 0 |  | better TMV activity than the ribavirin |  |
| C[n+]1c2ccccc2cc2[nH]c3ccc(Br)cc3c21 [Reference Example 1, 5-methyl-7-bromo 5H-indolo[3,2-b]quinoline, reference compound] | 0 |  |  |  |
| C[n+]1c2ccccc2c(N2CCN(CCN)CC2)c2[nH]c3ccc(Cl)cc3c21.[I-] [Reference Example 2, 11-(4′-(2-aminoethyl)-piperazinyl) substituted cryptolepine iodide salt, reference compound] | 0 |  |  |  |
| Cc1nc(C(F)(F)F)c(C(=O)Nc2c(Br)cc(OC(F)(F)F)cc2Br)s1 [Thifluzamide, thifluzamide, reference compound] | 100 |  |  |  |
